Where two headings read alike, the source gives them in different places. Starred links: 1 amine or outer side, 2 acyl side, 3 side chain; linkers in the order of their positions; H or OH if unused. Non-standard residues stand in square brackets, D forms with d. Residues, ends and D or L forms follow the SMILES beside them. *: point of attachment. X1 = Cc1cc(F)cc(-c2cnc(NCCNC(=O)CCOCCC(=O)*)c(-c3nc4ccc(Cl)cc4[nH]3)c2N2CCC(N)CC2)c1; Dolaproine = CO[C@@H]([C@@H]1CCCN1)[C@@H](C)C(=O)O; Dil = CC[C@H](C)[C@H](NC)[C@@H](CC(=O)O)OC; PABC = O=C(OCc1ccc(N[*:1])cc1)[*:2]; X2 = C[C@@H](N*)[C@@H](O)c1ccccc1; Cit = NC(=O)NCCC[C@H](N)C(=O)O; NMeV = CN[C@H](C(=O)O)C(C)C
How the values were obtained:
Format in all cases: cell-based
[1] = molecular target: T1, human somatostatin receptor subtype 2 (Homo sapiens, UniProt P30874); experiment: Functional cAMP assay for SSTR2 agonists (HTRF) in CHO-K1 cells; details: CHO-K1 cells stably expressing human SST2, 20 min
T1 construct: expressed in transfected cells
How it was run: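 Agonism scored as loss of NKH477 (1.6 μM)-driven cAMP, with IBMX present, after 20 min, 37° C. exposure of stably transfected CHO-K1 cells to compound dilutions (typically 0-10,000 nM). Lysates read by time-resolved FRET; cAMP interpolated from standard curve and EC50 derived.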

[2] = tested on: NCI-H524 (ATCC) human small cell lung cancer cells
How it was run: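 CellTiter-Glo luminescence after a 2 h SMDC pulse (top dose 1 uM, 2-fold dilutions, 11 points), medium wash, then 70 h recovery. Cells were seeded at 5,000/well and dosed 24 h later. % inhibition vs control gave IC50 via four-parameter fit.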

SST2 = molecular target: T2, SST2 (Homo sapiens, UniProt P30874); experiment: PathHunter CHO-K1 SST2 internalization assay; details: PathHunter CHO-K1 SST2, 90 min
T2 construct: host or cells: PathHunter CHO-K1 SST2 cells
How it was run: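 IC50 comes from four-parameter curves on background-corrected duplicates of Beta-Glo luminescence, read after 60 min at room temperature in the dark. Before that, CHO-K1 SST2 internalization cells (48 h post-seeding) received SMDC as eleven threefold dilutions, 10 uM highest final, for 90 min at 37 C.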

[3] = 2 h treatment, washout, additional 70 h, read-out: H524 EC50

T2 sequence (P30874 whole entry): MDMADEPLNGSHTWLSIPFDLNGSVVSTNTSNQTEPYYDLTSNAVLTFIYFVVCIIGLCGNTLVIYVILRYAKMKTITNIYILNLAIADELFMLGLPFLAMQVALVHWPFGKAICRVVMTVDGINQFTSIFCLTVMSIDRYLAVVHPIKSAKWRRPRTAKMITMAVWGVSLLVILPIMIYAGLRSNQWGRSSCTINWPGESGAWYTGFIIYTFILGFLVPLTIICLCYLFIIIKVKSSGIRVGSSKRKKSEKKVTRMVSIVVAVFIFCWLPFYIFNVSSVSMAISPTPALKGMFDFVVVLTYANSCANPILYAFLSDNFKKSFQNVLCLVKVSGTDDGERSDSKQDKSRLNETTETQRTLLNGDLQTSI
T1 sequence (P30874 whole entry): as above

Row | Compound | EC50 ([1]; hSST2 cAMP Avg EC50 (nM)) [nM] | EC50 [2, 3] [nM] | EC50 (SST2; Internalization EC50 (nM)) [nM] | EC50 ([1]; read-out: hSST2 cAMP Avg EC50) [nM] | EC50 ([2]; 2 h) [nM] | EC50 (SST2; read-out: Internalization EC50) [nM]
1 | CC[C@@]1(O)C(=O)OCc2c1cc1n(c2=O)Cc2c-1nc1cc(F)c(C)c3c1c2[C@@H](NC(=O)OCc1ccc(NC(=O)[C@H](CCCNC(N)=O)NC(=O)[C@@H](NC(=O)CCOCCC(=O)NCCNc2ncc(-c4cc(C)cc(F)c4)c(N4CCC(N)CC4)c2-c2nc4ccc(Cl)cc4[nH]2)C(C)C)cc1)CC3 [Compound 88] | 0.3 | 55 | 1.3 | – | – | –
2 | CC[C@H](C)[C@@H]([C@@H](CC(=O)N1CCC[C@H]1[C@H](OC)[C@@H](C)C(=O)N[C@H](C)[C@@H](O)c1ccccc1)OC)N(C)C(=O)[C@@H](NC(=O)[C@H](C(C)C)N(C)C(=O)OCc1ccc(NC(=O)[C@H](CCCNC(N)=O)NC(=O)[C@@H](NC(=O)CCOCCNC(=O)CN2CCN(CC(=O)O)CCN(CC(=O)NCCOCCOCCOCCOCCC(=O)NCCNc3ncc(-c4cc(C)cc(F)c4)c(N4CCC(N)CC4)c3-c3nc4ccc(Cl)cc4[nH]3)CC2)C(C)C)cc1)C(C)C [Compound 43] | – | – | – | 0.29 | 82.6 | 18.1
3 | CC[C@H](C)[C@@H]([C@@H](CC(=O)N1CCC[C@H]1[C@H](OC)[C@@H](C)C(=O)N[C@H](C)[C@@H](O)c1ccccc1)OC)N(C)C(=O)[C@@H](NC(=O)[C@H](C(C)C)N(C)C(=O)OCc1ccc(NC(=O)[C@H](CCCNC(N)=O)NC(=O)[C@@H](NC(=O)[C@H](CCC(=O)O)NC(=O)CCOCCOCCOCCOCCC(=O)NCCNc2ncc(-c3cc(C)cc(F)c3)c(N3CCC(N)CC3)c2-c2nc3ccc(Cl)cc3[nH]2)C(C)C)c(O[C@@H]2O[C@H](C(=O)O)[C@@H](O)[C@H](O)[C@H]2O)c1)C(C)C [Compound 144] | – | – | – | 0.21 | 120 | 6.9
4 | Cc1cc(F)cc(-c2cnc(NCCNC(=O)CCOCCC(=O)NCCNC(=O)c3c(C)[nH]c(/C=C4\C(=O)Nc5ccc(F)cc54)c3C)c(-c3nc4ccc(Cl)cc4[nH]3)c2N2CCC(N)CC2)c1 [Compound 29, N-(2-{[4-(4-aminopiperidin-1-yl)-3-(6-chloro-1H-1,3-benzodiazol-2-yl)-5-(3-fluoro-5-methylphenyl)pyridin-2-yl]amino}ethyl)-3-[2-({2-[(5-{[(3Z)-5-fluoro-2-oxo-2,3-dihydro-1H-indol-3-ylidene]methyl}-2,4-dimethyl-1H-pyrrol-3-yl)formamido]ethyl}carbamoyl)ethoxy]propenamide] | – | – | – | 0.065 | > 10000 | 2.2
5 | CC[C@H](C)[C@@H]([C@@H](CC(=O)N1CCC[C@H]1[C@H](OC)[C@@H](C)C(=O)N[C@H](C)[C@@H](O)c1ccccc1)OC)N(C)C(=O)[C@@H](NC(=O)[C@H](C(C)C)N(C)C(=O)OCc1ccc(NC(=O)[C@H](C)NC(=O)[C@@H](NC(=O)[C@H](CCC(=O)O)NC(=O)CCOCCC(=O)NCCNc2ncc(-c3cc(C)cc(F)c3)c(N3CCC(N)CC3)c2-c2nc3ccc(Cl)cc3[nH]2)C(C)C)cc1C(=O)NCCN)C(C)C [Compound 116] | – | – | – | 0.1 | 6.6 | 3.9
6 | CC[C@H](C)[C@@H]([C@@H](CC(=O)N1CCC[C@H]1[C@H](OC)[C@@H](C)C(=O)N[C@H](C)[C@@H](O)c1ccccc1)OC)N(C)C(=O)[C@@H](NC(=O)[C@H](C(C)C)N(C)C(=O)OCc1ccc(NC(=O)[C@H](CCCNC(N)=O)NC(=O)[C@@H](NC(=O)[C@H](CCC(=O)O)NC(=O)CCOCCOCCOCCOCCC(=O)NCCNc2ncc(-c3cc(C)cc(F)c3)c(N3CCC(N)CC3)c2-c2nc3ccc(Cl)cc3[nH]2)C(C)C)cc1C(=O)NC)C(C)C [Compound 53] | – | – | – | 0.16 | 100 | 13
7 | CC[C@@]1(O)C(=O)OCc2c1cc1n(c2=O)Cc2c-1nc1cc(F)c(C)c3c1c2[C@@H](NC(=O)CCOCCC(=O)NCCNc1ncc(-c2cc(C)cc(F)c2)c(N2CCC(N)CC2)c1-c1nc2ccc(Cl)cc2[nH]1)CC3 [Compound 78, N-{2-[4-(4-amino-1-piperidyl)-3-(6-chloro-1H-1,3-benzimidazol-2-yl)-5-(3-fluoro-5-tolyl)-2-pyridylamino]ethyl}3-(2-{N-(10S,23S)-10-ethyl-18-fluoro-10-hydroxy-19-methyl-5,9-dioxo-8-oxa-4,15-diazahexacyclo[14.7.1.0^2,^14.0^4,^13.0^6,^11.0^20,^24]tetracosa-1,6(11),12,14,16,18,20(24)-heptaen-23-ylcarbamoyl}ethoxy)propionamide] | 0.23 | 170 | 0.77 | – | – | –
8 | CC[C@H](C)[C@@H]([C@@H](CC(=O)N1CCC[C@H]1[C@H](OC)[C@@H](C)C(=O)N[C@H](C)[C@@H](O)c1ccccc1)OC)N(C)C(=O)[C@@H](NC(=O)[C@H](C(C)C)N(C)C(=O)OCc1ccc(NC(=O)[C@H](C)NC(=O)[C@@H](NC(=O)[C@H](CCC(=O)O)NC(=O)CCOCCOCCOCCOCCC(=O)NCCNc2ncc(-c3cc(C)cc(F)c3)c(N3CCC(N)CC3)c2-c2nc3ccc(Cl)cc3[nH]2)C(C)C)c(O[C@@H]2O[C@H](C(=O)O)[C@@H](O)[C@H](O)[C@H]2O)c1)C(C)C [Compound 152] | – | – | – | 0.2 | 91 | 5.8
9 | CC[C@H](C)[C@@H]([C@@H](CC(=O)N1CCC[C@H]1[C@H](OC)[C@@H](C)C(=O)N[C@H](C)[C@@H](O)c1ccccc1)OC)N(C)C(=O)[C@@H](NC(=O)[C@H](C(C)C)N(C)C(=O)OCc1ccc(NC(=O)[C@H](CCCNC(N)=O)NC(=O)[C@@H](NC(=O)[C@H](CCC(=O)O)NC(=O)CCOCCC(=O)NCCNc2ncc(-c3cc(C)cc(F)c3)c(N3CCC(N)CC3)c2-c2nc3ccc(Cl)cc3[nH]2)C(C)C)cc1)C(C)C [Compound 36] (X1-EV[Cit][PABC][NMeV]V[Dil][Dolaproine]-X2) | – | – | – | 0.25 | 44.1 | 12.9
10 | COc1cc2cc(c1Cl)N(C)C(=O)CC(OC(=O)[C@@H](C)N(C)C(=O)CCS[C@@H]1CC(=O)N(CC3CCC(C(=O)NCCCC[C@H](N)C(=O)NCCNc4ncc(-c5cc(C)cc(F)c5)c(N5CCC(N)CC5)c4-c4nc5ccc(Cl)cc5[nH]4)CC3)C1=O)[C@]1(C)OC1[C@@H](C)C1C[C@@](O)(NC(=O)O1)[C@H](OC)/C=C/C=C(\C)C2 (stereo partly drawn) [Compound 8] | – | – | – | 0.12 | 447 | 23.6
11 | CC[C@H](C)[C@@H]([C@@H](CC(=O)N1CCC[C@H]1[C@H](OC)[C@@H](C)C(=O)N[C@H](C)[C@@H](O)c1ccccc1)OC)N(C)C(=O)[C@@H](NC(=O)[C@H](C(C)C)N(C)C(=O)OCc1ccc(NC(=O)[C@H](CCCNC(N)=O)NC(=O)[C@@H](NC(=O)CCOCCC(=O)N[C@@H](CS(=O)(=O)O)C(=O)NCCNc2ncc(-c3cc(C)cc(F)c3)c(N3CCC(N)CC3)c2-c2nc3ccc(Cl)cc3[nH]2)C(C)C)cc1)C(C)C [Compound 70] | – | – | – | 0.44 | 68 | 17
12 | CC[C@H](C)[C@@H]([C@@H](CC(=O)N1CCC[C@H]1[C@H](OC)[C@@H](C)C(=O)N[C@H](C)[C@@H](O)c1ccccc1)OC)N(C)C(=O)[C@@H](NC(=O)[C@H](C(C)C)N(C)C(=O)OCc1ccc(NC(=O)[C@H](CCCNC(N)=O)NC(=O)[C@@H](NC(=O)[C@@H](CCC(=O)O)NC(=O)CCOCCC(=O)NCCNc2ncc(-c3cc(C)cc(F)c3)c(N3CCC(N)CC3)c2-c2nc3ccc(Cl)cc3[nH]2)C(C)C)cc1C(=O)NCCN)C(C)C [Compound 101] | – | – | – | 0.22 | 34 | 6.7
13 | CC[C@H](C)[C@@H]([C@@H](CC(=O)N1CCC[C@H]1[C@H](OC)[C@@H](C)C(=O)N[C@H](C)[C@@H](O)c1ccccc1)OC)N(C)C(=O)[C@@H](NC(=O)[C@H](C(C)C)N(C)C(=O)OCc1ccc(NC(=O)[C@H](C)NC(=O)[C@@H](NC(=O)[C@H](CS(=O)(=O)O)NC(=O)CCOCCOCCOCCOCCC(=O)NCCNc2ncc(-c3cc(C)cc(F)c3)c(N3CCC(N)CC3)c2-c2nc3ccc(Cl)cc3[nH]2)C(C)C)cc1C(=O)NCCN)C(C)C [Compound 158] | – | – | – | 0.24 | 3 | 12
14 | COc1cc2cc(c1Cl)N(C)C(=O)CC(OC(=O)[C@@H](C)N(C)C(=O)CCSSCCNC(=O)CNC(=O)C[C@@H](N)C(=O)NCCNc1ncc(-c3cc(C)cc(F)c3)c(N3CCC(N)CC3)c1-c1nc3ccc(Cl)cc3[nH]1)[C@]1(C)OC1[C@@H](C)C1C[C@@](O)(NC(=O)O1)[C@H](OC)/C=C/C=C(\C)C2 (stereo partly drawn) [Compound 13] | – | – | – | 0.075 | 41.8 | 6.3
15 | COc1cc2cc(c1Cl)N(C)C(=O)CC(OC(=O)[C@@H](C)N(C)C(=O)CCSSCCC(=O)NCCNc1ncc(-c3cc(C)cc(F)c3)c(N3CCC(N)CC3)c1-c1nc3ccc(Cl)cc3[nH]1)[C@]1(C)OC1[C@@H](C)C1C[C@@](O)(NC(=O)O1)[C@H](OC)/C=C/C=C(\C)C2 (stereo partly drawn) [Compound 20, (2S,5S,6S,16E,18E,20R,21S)-11-chloro-21-hydroxy-12,20-dimethoxy-2,5,9,16-tetramethyl-8,23-dioxo-4,24-dioxa-9,22-diazatetracyclo[19.3.1.1^10,^14.0^3,^5]hexacosa-10,12,14(26),16,18-pentaen-6-yl (2R)-2-[3-({2-[(2-{[4-(4-aminopiperidin-1-yl)-3-(6-chloro-1H-1,3-benzodiazol-2-yl)-5-(3-fluoro-5-methylphenyl)pyridin-2-yl]amino}ethyl)-carbamoyl]ethyl}disulfanyl)-N-methylpropanamido]propanoate] | – | – | – | 0.27 | 31.6 | 6.3

Source: US12134610B2, “Somatostatin subtype-2 receptor (SST2R) targeted therapeutics and uses thereof” (priority 2022, dated 2024)
